Reference: paper PMC6277767, “Broad and Region-Specific Impacts of the Synthetic Cannabinoid CP 55,940 in Adolescent and Adult Female Mouse Brains” (Frontiers in Molecular Neuroscience, 2018)

Test system: CD1 female mouse brain lipidome
Assay: Brain-region lipid levels (HPLC/MS/MS lipidomics) 2 h after single i.p. 3 mg/kg CP 55,940 vs vehicle
Assay type: in vivo
Experimental: The Bloomington Institutional Animal Care and Use Committee of Indiana University reviewed and approved the animal procedures. Female mice from the CD1 strain were utilized to match our study examining THC’s effects on the brain lipidome ([Leishman et al., 2018]). Mice were given a single i.p. injection of either 3 mg/kg CP or 1:1:18 cremophor:ethanol:saline vehicle (please refer to the section “3 mg/kg CP Is Relevant for Synthetic Cannabinoid Abuse and Has Stronger Effects on the Female Mouse Brain Lipidome During Adolescence” for a justification of dose and use of female mice). Three different age groups were given injections: PND 35 and PND 50 adolescents, and adult mice (PND 113). At least eight mice in each age group received CP and at least eight received vehicle. Matching the THC study time course ([Leishman et al., 2018]), mice were sacrificed via rapid decapitation 2 h after injection. Brains were immediately removed and flash-frozen in liquid nitrogen, and then stored at -80°C until dissections were performed. Brains were dissected on an ice-cold dissection plate into the following regions: STR, HIPP, CER, THAL, CTX, HYP, MID, and STEM. These abbreviations for these brain areas will be used exclusively when discussing the results generated by these specific dissections. Each dissected area was immediately placed in liquid nitrogen and then stored at -80°C until used for lipid extraction.
Tissue extracts were performed as previously described ([Bradshaw et al., 2006]; [Stuart et al., 2013]; [Raboune et al., 2014]; [Leishman et al., 2016a],[b], [2017], [2018]). First, samples were shock frozen in liquid nitrogen, weighed, and transferred to a centrifuge tube. The mass of the largest sample was multiplied by 50 to determine how many milliliters of HPLC-grade methanol (Fisher, Fair Lawn, NJ, United States) to add. Then, samples were spiked with 500 pmol deuterium-labeled NAGly (d8NAGly; Cayman Chemical, Ann Arbor, MI, United States). Samples were placed on ice in darkness for 2 h then individually homogenized and centrifuged at 19,000 × g for 20 min at 20°C. Supernatants were diluted with HPLC water (purified in house) to make a solution of 75% water, 25% supernatant. Lipids were partially purified on C18 solid phase extraction columns (Agilent, Palo Alto, CA, United States). A series of four elutions with 1.5 mL of 60%, 75%, 85%, and 100% methanol were collected ([Stuart et al., 2013]; [Leishman et al., 2016a],[b], [2018]).
As previously described ([Bradshaw et al., 2006]; [Tan et al., 2006]; [Smoum et al., 2010]; [Stuart et al., 2013]; [Tortoriello et al., 2013]; [Raboune et al., 2014]; [Leishman et al., 2016a],[b], [2017], [2018]), samples were analyzed using an Applied Biosystems API 3000 triple quadrupole mass spectrometer with electrospray ionization (Foster City, CA, United States). Using an Agilent XDB-C18 reversed phase analytical column and optimized mobile phase gradients, 20 μL from each elution were chromatographed. Two Shimadzu 10ADvp pumps (Columbia, MD, United States) provided the pressure for gradient elution. Mobile phase A: 20% methanol, 80% water (v/v) and 1 mM ammonium acetate (Sigma, St. Louis, MO, United States). Mobile phase B: 100% methanol, 1 mM ammonium acetate. Every method run began with 0% mobile phase B, reached 100% mobile phase B flowing at 0.2 mL/min, and gradually returned to 0% mobile phase B.
This screening library will be referred to as the lipidome when discussing data from this study. HPLC/MS/MS data were analyzed using Analyst software (Applied Biosystems) ([Bradshaw et al., 2006]; [Tan et al., 2006]; [Stuart et al., 2013]; [Tortoriello et al., 2013]; [Raboune et al., 2014]; [Leishman et al., 2016a],[b], [2017], [2018]). Chromatograms (Supplementary Figure 3) were generated by determining the retention time of analytes from the analytical column with a [M-1] or [M+1] parent peak and a fragmentation peak corresponding to the programmed values. […]

## CCCCCCC(C)(C)c1ccc([C@@H]2C[C@H](O)CC[C@H]2CCCO)c(O)c1 [CP 55,940]
PND 35 STR
  PGF2α level vs vehicle: ↑ (1-1.49 times higher than vehicle)
PND 35 THAL
  2-linoleoyl glycerol level vs vehicle: ↓ (1-1.49 times lower than vehicle)
  6-ketoPGF1α level vs vehicle: ↓ (1-1.49 times lower than vehicle)
  N- stearoyl valine level vs vehicle: ↑ (1-1.49 times higher than vehicle)
  N-arachidonoyl GABA level vs vehicle: ↓ (1-1.49 times lower than vehicle)
  N-arachidonoyl alanine level vs vehicle: ↓ (1-1.49 times lower than vehicle)
  N-arachidonoyl ethanolamine level vs vehicle: ↑ (1-1.49 times higher than vehicle)
  N-arachidonoyl glycine level vs vehicle: ↓ (1-1.49 times lower than vehicle)
  N-arachidonoyl phenylalanine level vs vehicle: ↑ (1-1.49 times higher than vehicle)
  N-arachidonoyl serine level vs vehicle: ↓ (1-1.49 times lower than vehicle)
  N-arachidonoyl taurine level vs vehicle: ↓ (1-1.49 times lower than vehicle)
  N-docosahexaenoyl GABA level vs vehicle: ↓ (1-1.49 times lower than vehicle)
  N-docosahexaenoyl alanine level vs vehicle: ↓ (1-1.49 times lower than vehicle)
  N-docosahexaenoyl glycine level vs vehicle: ↓ (1-1.49 times lower than vehicle)
  N-docosahexaenoyl leucine level vs vehicle: ↑↑ (1.50-1.99 times higher than vehicle)
  N-docosahexaenoyl phenylalanine level vs vehicle: ↑ (1-1.49 times higher than vehicle)
  N-linoleoyl ethanolamine level vs vehicle: ↑ (1-1.49 times higher than vehicle)
  N-oleoyl GABA level vs vehicle: ↓ (1-1.49 times lower than vehicle)
  N-oleoyl alanine level vs vehicle: ↓ (1-1.49 times lower than vehicle)
  N-oleoyl glycine level vs vehicle: ↓ (1-1.49 times lower than vehicle)
  N-oleoyl leucine level vs vehicle: ↑ (1-1.49 times higher than vehicle)
  N-oleoyl valine level vs vehicle: ↑ (1-1.49 times higher than vehicle)
  N-palmitoyl GABA level vs vehicle: ↑ (1-1.49 times higher than vehicle)
  N-palmitoyl leucine level vs vehicle: ↑ (1-1.49 times higher than vehicle)
  N-palmitoyl phenylalanine level vs vehicle: ↑ (1-1.49 times higher than vehicle)
  N-palmitoyl tyrosine level vs vehicle: ↑ (1-1.49 times higher than vehicle)
  N-palmitoyl valine level vs vehicle: ↑↑ (1.50-1.99 times higher than vehicle)
  N-stearoyl serine level vs vehicle: ↓ (1-1.49 times lower than vehicle)
  N-stearoyl tyrosine level vs vehicle: ↓ (1-1.49 times lower than vehicle)
  PGE2 level vs vehicle: ↑ (1-1.49 times higher than vehicle)
  phosphoLEA level vs vehicle: ↑ (1-1.49 times higher than vehicle)
PND 35 brain
  changes in NAEs: 17
  changes in PG levels: 15
  changes in lipoamines derived from AA: 50
  decreases in 2-acyl glycerol levels: 15
  decreases in PG levels: 5
  decreases in free fatty acid levels: Eight
  increases in PG levels: 10
PND 35 brain, 529 detected
  percentage of detected lipids modified with acute CP: 43.67%
PND 35 hypothalamus
  2-arachidonoyl glycerol, Direction (relative to Veh): ↓
  2-arachidonoyl glycerol, Magnitude (x Veh level): 0.39 x Veh level
  2-linoleoyl glycerol Direction (relative to Veh): ↓
  2-linoleoyl glycerol Magnitude (x Veh level): 0.63 x Veh level
  2-oleoyl glycerol, Direction (relative to Veh): ↓
  2-oleoyl glycerol, Magnitude (x Veh level): 0.55 x Veh level
  2-palmitoyl glycerol, Direction (relative to Veh): ↑
  2-palmitoyl glycerol, Magnitude (x Veh level): 1.29 x Veh level
  Arachidonic acid, Direction (relative to Veh): ↓
  Arachidonic acid, Magnitude (x Veh level): 0.85 x Veh level
  Linoleic acid, Direction (relative to Veh): ↓
  Linoleic acid, Magnitude (x Veh level): 0.75 x Veh level
  N-arachidonoyl GABA Direction (relative to Veh): ↓
  N-arachidonoyl GABA Magnitude (x Veh level): 0.74 x Veh level
  N-arachidonoyl alanine Magnitude (x Veh level): 0.55 x Veh level
  N-arachidonoyl alanine, Direction (relative to Veh): ↓
  N-arachidonoyl ethanolamine, Direction (relative to Veh): ↓
  N-arachidonoyl ethanolamine, Magnitude (x Veh level): 0.76 x Veh level
  N-arachidonoyl glycine Direction (relative to Veh): ↓
  N-arachidonoyl glycine Magnitude (x Veh level): 0.70 x Veh level
  N-arachidonoyl phenylalanine, Direction (relative to Veh): ↓
  N-arachidonoyl phenylalanine, Magnitude (x Veh level): 0.86 x Veh level
  N-arachidonoyl taurine Direction (relative to Veh): ↓
  N-arachidonoyl taurine Magnitude (x Veh level): 0.70 x Veh level
  N-docosahexaenoyl GABA Direction (relative to Veh): ↓
  N-docosahexaenoyl GABA Magnitude (x Veh level): 0.68 x Veh level
  N-docosahexaenoyl ethanolamine, Direction (relative to Veh): ↓
  N-docosahexaenoyl ethanolamine, Magnitude (x Veh level): 0.59 x Veh level
  N-linoleoyl alanine direction (relative to Veh): ↓
  N-linoleoyl alanine magnitude (x Veh level): 0.77 x Veh level
  N-oleoyl GABA Magnitude (x Veh level): 0.87 x Veh level
  N-oleoyl GABA direction (relative to Veh): ↓
  N-oleoyl alanine Magnitude (x Veh level): 0.84 x Veh level
  N-oleoyl alanine direction (relative to Veh): ↓
  N-oleoyl ethanolamine, Direction (relative to Veh): ↓
  N-oleoyl ethanolamine, Magnitude (x Veh level): 0.65 x Veh level
  N-palmitoyl ethanolamine, Direction (relative to Veh): ↓
  N-palmitoyl ethanolamine, Magnitude (x Veh level): 0.66 x Veh level
  N-palmitoyl leucine, Direction (relative to Veh): ↑
  N-palmitoyl leucine, Magnitude (x Veh level): 1.30 x Veh level
  N-stearoyl ethanolamine direction (relative to Veh): ↓
  N-stearoyl ethanolamine magnitude (x Veh level): 0.73 x Veh level
  Oleic acid, Direction (relative to Veh): ↓
  Oleic acid, Magnitude (x Veh level): 0.72 x Veh level
  PGE2 Direction (relative to Veh): ↓
  PGE2 Magnitude (x Veh level): 0.78 x Veh level
  PGF2α Direction (relative to Veh): ↑
  PGF2α Magnitude (x Veh level): 1.27 x Veh level
  phoshoLEA direction (relative to Veh): ↑
  phoshoLEA magnitude (x Veh level): 1.47 x Veh level
PND 35 midbrain, 3mg/kg
  2-linoleoyl glycerol: Magnitude (x Veh level): 0.76 x Veh level
  6-ketoPGF1α: Magnitude (x Veh level): 0.86 x Veh level
  Arachidonic acid: Magnitude (x Veh level): 0.88 x Veh level
  N-arachidonoyl GABA: Magnitude (x Veh level): 0.69 x Veh level
  N-arachidonoyl alanine: Magnitude (x Veh level): 0.79 x Veh level
  N-arachidonoyl glycine: Magnitude (x Veh level): 0.89 x Veh level
  N-arachidonoyl serine: Magnitude (x Veh level): 0.82 x Veh level
  N-arachidonoyl taurine: Magnitude (x Veh level): 0.87 x Veh level
  N-arachidonoyl tyrosine: Magnitude (x Veh level): 0.81 x Veh level
  N-docosahexaenoyl GABA: Magnitude (x Veh level): 0.72 x Veh level
  N-docosahexaenoyl alanine: Magnitude (x Veh level): 0.82 x Veh level
  N-docosahexaenoyl glycine: Magnitude (x Veh level): 0.88 x Veh level
  N-docosahexaenoyl leucine: Magnitude (x Veh level): 1.40 x Veh level
